Values after ≈ are worked out from the molar mass of the structure shown.
Assays:
[1] = Solubility (water, 22C, pH 7.2); assay type: physicochemical; conditions: read-out: S
Bacteroides fragilis = assay: In vitro antibacterial activity against Bacteroides fragilis A-22,862; assay type: functional
Escherichia coli = assay: In vitro antibacterial activity against Escherichia coli A15119; assay type: functional
Enterobacter cloacae = assay: In vitro antibacterial activity against Enterobacter cloacae A9656; assay type: functional
Enterococcus faecalis = assay: In vitro antibacterial activity against Enterococcus faecalis A9809; assay type: functional
Klebsiella pneumoniae = assay: In vitro antibacterial activity against Klebsiella pneumoniae A9664; assay type: functional
Morganella morganii = assay: In vitro antibacterial activity against Morganella morganii A15153; assay type: functional
Pseudomonas aeruginosa = assay: In vitro antibacterial activity against Pseudomonas aeruginosa A9843; assay type: functional
Proteus mirabilis = assay: In vitro antibacterial activity against Proteus mirabilis A9900; assay type: functional
Staphylococcus aureus = assay: In vitro antibacterial activity against Staphylococcus aureus A9537; assay type: functional
Serratia marcescens = assay: In vitro antibacterial activity against Serratia marcescens A20019; assay type: functional
Streptococcus pneumoniae = assay: In vitro antibacterial activity against Streptococcus pneumoniae A9585.; assay type: functional
[2] = Partition coefficient (logD); assay type: physicochemical; conditions: octanol/water
[3] = Peak concentration in blood after intravenous administration to mice; assay type: ADME, organism-based; set-up: route intravenous; conditions: mouse
[4] = Peak concentration in blood after peroral administration to mice; assay type: ADME, organism-based; set-up: route oral; conditions: mouse, po
Mus musculus [5] = assay: Area under curve measured as conc vs time after intravenous administration to mice.; assay type: ADME, organism-based; set-up: unit not given here; conditions: in vivo
Mus musculus [6] = assay: Area under curve measured as conc vs time after peroral administration to mice.; assay type: ADME, organism-based; set-up: unit not given here; conditions: in vivo, po
[7] = Plasma half-life after intravenous administration to mice; assay type: ADME, organism-based; conditions: mouse
[8] = Plasma half-life after peroral administration to mice; assay type: ADME, organism-based; conditions: mouse, po
[9] = percent urinary recovery in 24 hr after intravenous administration to mice; assay type: ADME, organism-based; conditions: mouse, urine, read-out: UR
[10] = Percent urinary recovery in 24 hr after peroral administration to mice; assay type: ADME, organism-based; conditions: mouse, urine, po; read-out: UR
Mus musculus [11] = assay: In vivo efficacy on systemic infections caused by Escherichia coli A15119 in mice after intramuscular administration; assay type: functional; conditions: im, read-out: PD50
Mus musculus [12] = assay: In vivo efficacy on systemic infections caused by Pseudomonas aeruginosa A9843 in mice after peroral administration; assay type: functional; conditions: po, read-out: PD50
Mus musculus [13] = assay: In vivo efficacy on systemic infections caused by Staphylococcus aureus A15090 in mice after intramuscular administration; assay type: functional; conditions: im, read-out: PD50
Mus musculus [14] = assay: In vivo efficacy on systemic infections caused by Staphylococcus aureus A15090 in mice after peroral administration; assay type: functional; conditions: po, read-out: PD50
Mus musculus [15] = assay: In vivo efficacy on systemic infections caused by Streptococcus pneumoniae A9585 in mice after intramuscular administration; assay type: functional; conditions: im, read-out: PD50
Mus musculus [16] = assay: In vivo efficacy on systemic infections caused by Streptococcus pneumoniae A9585 in mice after peroral administration; assay type: functional; conditions: po, read-out: PD50
Mus musculus [17] = assay: In vivo efficacy on systemic infections caused by Pseudomonas aeruginosa A9843 in mice after intramuscular administration; assay type: functional; conditions: im, read-out: PD50
[18] = Acute toxicity after intravenous administration to mice; assay type: organism-based; conditions: mouse, in vivo
[19] = Acute toxicity after peroral administration to mice; assay type: organism-based; conditions: mouse, in vivo, po
Mus musculus [20] = assay: In vivo efficacy on systemic infections caused by Escherichia coli A15119 in mice after peroral administration; assay type: functional; conditions: po, read-out: PD50

| Compound | solubility [1] [µg/mL] | MIC (Bacteroides fragilis) [µg/mL] | MIC (Escherichia coli) [µg/mL] | MIC (Enterobacter cloacae) [µg/mL] | MIC (Enterococcus faecalis) [µg/mL] | MIC (Klebsiella pneumoniae) [µg/mL] | MIC (Morganella morganii) [µg/mL] | MIC (Pseudomonas aeruginosa) [µg/mL] | MIC (Proteus mirabilis) [µg/mL] | MIC (Staphylococcus aureus) [µg/mL] | MIC (Serratia marcescens) [µg/mL] | MIC (Streptococcus pneumoniae) [µg/mL] | logD [2] | Cmax [3] [ng/mL] | Cmax [4] [ng/mL] | half-life [7] [h] | half-life [8] [h] | dose excreted at 24 h [9] [%] | dose excreted at 24 h [10] [%] | ED50 (Mus musculus [12]) [mg/kg] | further results |
| --- | --- | --- | --- | --- | --- | --- | --- | --- | --- | --- | --- | --- | --- | --- | --- | --- | --- | --- | --- | --- | --- |
| Cc1c(F)c(N2C[C@H]3C[C@@H]2[C@@H](C)N3)nc2c1c(=O)c(C(=O)O)cn2C1CC1.Cl | 150 | 8 | 0.016 | 0.06 | 0.25 | 0.06 | 0.25 | 1 | 0.25 | 0.016 | 0.5 | 0.13 | 0.71 |  |  |  |  |  |  |  |  |
| Cc1c(F)c(N2C[C@H]3C[C@@H]2[C@H](C)N3)nc2c1c(=O)c(C(=O)O)cn2C1CC1.Cl | 6 | 2 | 0.004 | 0.016 | 0.13 | 0.016 | 0.06 | 0.13 | 0.06 | 0.016 | 0.13 | 0.06 | 0.71 | 12000 | 6000 | 4.8 | 4.2 | 16 | 18 | 0.34 | AUC (Mus musculus [5]): 59; AUC (Mus musculus [6]): 41; ED50 (Mus musculus [11]): 0.1 mg/kg; ED50 (Mus musculus [13]): 0.34 mg/kg; ED50 (Mus musculus [14]): 1.8 mg/kg; ED50 (Mus musculus [15]): 18.9 mg/kg; ED50 (Mus musculus [16]): 18.9 mg/kg; ED50 (Mus musculus [17]): 0.78 mg/kg |
| Cc1c(F)c(N2[C@H]3CN[C@H](C3)[C@H]2C)nc2c1c(=O)c(C(=O)O)cn2C1CC1.Cl | 220 | 8 | 0.016 | 0.06 | 0.025 | 0.06 | 0.25 | 2 | 0.5 | 0.03 | 0.5 | 0.25 | 1 |  |  |  |  |  |  |  |  |
| C[C@H]1N[C@@H]2C[C@H]1N(c1nc3c(cc1F)c(=O)c(C(=O)O)cn3C(C)(C)C)C2.Cl | 6340 | 4 | 0.03 | 0.06 | 1 | 0.5 | 1 | 2 | 0.5 | 0.06 | 0.25 | 0.5 | -0.12 | 23000 | 11000 | 0.75 | 0.733 | 18 | 17 | 9.5 | AUC (Mus musculus [5]): 18; AUC (Mus musculus [6]): 8; ED50 (Mus musculus [14]): 16.5 mg/kg; ED50 (Mus musculus [17]): 12.5 mg/kg |
| C[C@@H]1N[C@@H]2C[C@H]1N(c1nc3c(cc1F)c(=O)c(C(=O)O)cn3C(C)(C)C)C2.Cl | 25 | 2 | 0.008 | 0.03 | 0.25 | 0.03 | 0.13 | 0.5 | 0.13 | 0.03 | 0.13 | 0.25 | 0.1 | 22000 | 9000 | 1.22 | 2.63 | 16 | 18 | 2.7 | AUC (Mus musculus [5]): 22; AUC (Mus musculus [6]): 41; LD50 [18]: 263 mg/kg; LD50 [19]: > 2500 mg/kg; ED50 (Mus musculus [13]): 0.9 mg/kg; ED50 (Mus musculus [14]): 1.6 mg/kg; ED50 (Mus musculus [15]): 14.4 mg/kg; ED50 (Mus musculus [16]): 25 mg/kg; ED50 (Mus musculus [17]): 1.6 mg/kg |
| Cc1c(F)c(N2C[C@H]3C[C@@H]2CN3)nc2c1c(=O)c(C(=O)O)cn2C1CC1 | 20 (≈ 55.8 µM) | 1 (≈ 2.79 µM) | 0.02 (≈ 0.0558 µM) | 0.002 (≈ 0.00558 µM) | 0.06 (≈ 0.167 µM) | 0.008 (≈ 0.0223 µM) | 0.03 (≈ 0.0837 µM) | 0.006 (≈ 0.0167 µM) | 0.03 (≈ 0.0837 µM) | 0.016 (≈ 0.0446 µM) | 0.006 (≈ 0.0167 µM) | 0.06 (≈ 0.167 µM) | 0.48 | 19000 | 9000 | 1.5 | 1.28 | 41 | 34 | 2.7 | AUC (Mus musculus [5]): 40; AUC (Mus musculus [6]): 26; LD50 [18]: 125 mg/kg; LD50 [19]: 1750 mg/kg; ED50 (Mus musculus [11]): 0.2 mg/kg; ED50 (Mus musculus [20]): 0.9 mg/kg; ED50 (Mus musculus [13]): 2.4 mg/kg; ED50 (Mus musculus [14]): 5.4 mg/kg; ED50 (Mus musculus [15]): > 25 mg/kg; ED50 (Mus musculus [16]): 43.5 mg/kg |
| CC(C)(C)n1cc(C(=O)O)c(=O)c2cc(F)c(N3C[C@H]4C[C@@H]3CN4)nc21 | 80 (≈ 222 µM) | 0.5 (≈ 1.39 µM) | 0.008 (≈ 0.0222 µM) | 0.016 (≈ 0.0444 µM) | 0.13 (≈ 0.361 µM) | 0.016 (≈ 0.0444 µM) | 0.03 (≈ 0.0832 µM) | 0.25 (≈ 0.694 µM) | 0.06 (≈ 0.166 µM) | 0.03 (≈ 0.0832 µM) | 0.06 (≈ 0.166 µM) | 0.13 (≈ 0.361 µM) | -0.41 | 20000 | 10000 | 1.22 | 1.6 | 30 | 34 | 4.7 | LD50 [18]: 303 mg/kg; LD50 [19]: 5000 mg/kg; ED50 (Mus musculus [11]): 0.5 mg/kg; ED50 (Mus musculus [13]): 0.9 mg/kg; ED50 (Mus musculus [14]): 1.6 mg/kg; ED50 (Mus musculus [15]): 18.9 mg/kg; ED50 (Mus musculus [16]): 28 mg/kg; ED50 (Mus musculus [17]): 1.4 mg/kg |

— ChEMBL document CHEMBL1125506, “Fluoronaphthyridines as antibacterial agents. 6. Synthesis and structure-activity relationships of new chiral 7-(1-, 3-, 4-, and 6-methyl-2,5-diazabicyclo[2.2.1]heptan-2-yl)naphthyridine analogues of 7-[(1R,4R)-2,5- diazabicyclo[2.2.1]heptan-2-yl]-1-(1,1-dimethylethyl)-6-fluoro-1,4-dihy …” (J Med Chem, 1992)
